Experimental data: EP2711007A1, “4-Aminopyrazolo[3,4-d]pyrimidine for use in treating or preventing primary and metastatic breast and prostate cancer” (Institut Univ. de Ciència i Tecnologia, S.A., priority 2012, dated 2014)

Tests used:
[1] = system: MCF-7 breast cancer cell line; test: Tetrazolium dye proliferation (WST-1) assay, MCF-7; assay type: cell-based; parameters: proliferation inhibitory effect compared with Gemcitabine: concentration or dose not given beside the values; settings: 5 days incubation; for proliferation inhibitory effect compared with Gemcitabine: Gemcitabine set to 0, negative = less inhibition than Gemcitabine; for inhibition at 1 µM: Homo sapiens, MCF7, 120 h, concentration not given (primary screen 1 microM), mean±SD, read-out: proliferation inhibitory effect compared with 0.1 % DMSO vehicle control group
Protocol: (§1) Determination of the ability of compound of formula (I) and combinations between compound of formula (I) and certain therapeutic compounds described herein to inhibit the proliferation of target cells was assayed in vitro against breast and prostate tumour cells. The antiproliferative activity was measured through the commercial WST-1 proliferation measurement reagent in a two-step screening procedure: […] MCF-7 and LNCaP cells were purchased from ATCC. PNT1A cells were purchased from ECACC. The cells were grown in a subconfluent condition to maintain a logarithmic growth phase. The cells were dislodged for passage using trypsin-EDTA. The proliferation of the cell lines was evaluated by using the commercial WST-1 proliferation measurement reagent. Cells from exponentially growing cultures were plated on the 96 well plates at the appropriate seeding density in the optimal medium to give logarithmic growth over the course of the assay. The plates with MCF-7 and PNT1A cells were incubated 24h at 37°C in a humidified CO2 atmosphere to allow for recovery from trypsinization before adding of test and control compounds. […] Control compounds Ara-C and Gemcitabine stock solutions were prepared in sterile water. Each test and control compound was diluted twice the final concentration in appropriate media. Half of the final well volume of each dilution was added in six parallels to plates containing cells. […] The plates were returned to 37°C in a humidified CO2 atmosphere and incubated for 5 days. […] Following incubation the absorbance at a wavelength of 450nm was measured from each well using a multilabel counter. The absorbance at wavelength 450nm correlates linearly to number of viable cells in the well. The means and standard deviations for parallel samples were calculated and plotted as a graph.

[2] = system: LNCaP prostate cancer cell line; test: Tetrazolium dye proliferation (WST-1) assay, LNCaP; assay type: cell-based; settings: 5 days incubation; for inhibition at 1 µM: Homo sapiens, 120 h, concentration not given (primary screen 1 microM), mean±SD, read-out: proliferation inhibitory effect compared with 0.1 % DMSO vehicle control group; for proliferation inhibitory effect compared with Gemcitabine: Gemcitabine set to 0, negative = less inhibition than Gemcitabine
Protocol: as §1

[3] = system: PNT1A immortalized normal prostate cell line; test: Tetrazolium dye proliferation (WST-1) assay, PNT1A; assay type: cell-based; settings: Homo sapiens, 120 h, 5 days incubation, concentration not given (primary screen 1 microM), mean±SD, read-out: proliferation inhibitory effect compared with 0.1 % DMSO vehicle control group
Protocol: as §1

pancreatic cancer cells = test: Effect on other cancer cells (pancreatic); assay type: cell-based; settings: other type of cancer cells such as pancreatic cancer cells
[4] = system: RC and S790 mouse mammary carcinomas; settings: considered non active; cited from earlier work
acute leukaemia = settings: up to 9 patients treated; cited from earlier work

Compound | proliferation inhibitory effect compared with Gemcitabine [1] [%] | inhibition at 1 µM [1] [%] | inhibition at 1 µM [2] [%] | inhibition at 1 µM [3] [%] | proliferation inhibitory effect compared with Gemcitabine [2] [%] | effect on pancreatic cancer cells (pancreatic cancer cells) | tumor growth inhibition [4] [%] | antitumour activity in man (acute leukaemia)
5-Bromo-2'-deoxyuridine (Broxuridine) [Compound E] | -221.1±50.3 | – | – | – | – | – | – | –
Nc1ccn([C@@H]2O[C@H](CO)[C@@H](O)[C@@H]2O)c(=O)n1 [Ara-C] | – | 78.3 ± 3.9 | 50.1 ± 3.4 | 66.5 ± 1.8 | – | – | – | –
Nc1ncnc2[nH]ncc12 [Compound I, 4-Aminopyrazolo[3,4-d]pyrimidine] | 93.8±2.4 | 98.6 ± 0.5 | 97.9 ± 0.5 | 18 ± 2.1 | 93.1±0.7 | no effect was detected | 10 | did not demonstrate any antitumour activity in man
Nc1ccn([C@@H]2O[C@H](CO)[C@@H](O)C2(F)F)c(=O)n1 [Gemcitabine, 2',2'-difluorodeoxycytidine] | 0 | 80 ± 3.7 | 71.2 ± 0.8 | 98.8 ± 0.3 | 0 | – | – | –
O=c1[nH]c(=O)n([C@H]2C[C@H](O)[C@@H](CO)O2)cc1F [Floxuridine] | -50.4±35.6 | 66.2 ± 8 | 58.3 ± 1 | 88.3 ± 0.6 | -34.7±3.1 | – | – | –
5-Iodo-2'-deoxyuridine (Idoxuridine) [Compound F] | -174.8±33.9 | – | – | – | – | – | – | –
